Source: ChEMBL document CHEMBL1212829, “Efficient synthesis of Hsp90 inhibitor dimers as potential antitumor agents” (Bioorg Med Chem, 2010)
pIC50: −log10 of the molar value.

Columns and labels:
[1] = biological target: Heat shock protein HSP 90-alpha (Homo sapiens, UniProt P07900); assay: Displacement of biotin-labeled geldanamycin from N-terminal His-tagged human recombinant HSP90alpha expressed in Escherichia coli
[2] = biological target: Heat shock protein HSP90 (Homo sapiens, UniProt P07900+P08238); assay: Inhibition of Hsp90 in human SKBR3 cells assessed as Her2 degradation after 24 hrs by Western blotting; format: cell-based; settings: sk-br-3
[3] = test system: SK-BR-3; assay: Cytotoxicity against human SKBR3 cells after 72 hrs by crystal violet assay; format: functional, cell-based; settings: SK-BR-3, 72 h

SMILES	pIC50 [1]	IC50 [2] [nM]	pIC50 [3]
Nc1ncnc2c1nc(Sc1cc3c(cc1Br)OCO3)n2CCCCc1cn(CCOCCOCCOCCOCCOCCn2cc(CCCCn3c(Sc4cc5c(cc4Br)OCO5)nc4c(N)ncnc43)nn2)nn1	5.29	5200	5.52
Nc1ncnc2c1nc(Sc1cc3c(cc1Br)OCO3)n2CCCCc1cn(CCOCCOCCOCCOCCOCCOCCOCCn2cc(CCCCn3c(Sc4cc5c(cc4Br)OCO5)nc4c(N)ncnc43)nn2)nn1	5.51	4200	5.32
C#CCCCCn1c(Sc2cc3c(cc2Br)OCO3)nc2c(N)ncnc21	5.85	2600	5.85
Nc1ncnc2c1nc(Sc1cc3c(cc1Br)OCO3)n2CCCc1cn(CCOCCOCCOCCOCCOCCOCCOCCn2cc(CCCn3c(Sc4cc5c(cc4Br)OCO5)nc4c(N)ncnc43)nn2)nn1	5.96	9200	5.32
Nc1ncnc2c1nc(Sc1cc3c(cc1Br)OCO3)n2CCCCc1cn(CCOCCOCCOCCOCCOCCOCCn2cc(CCCCn3c(Sc4cc5c(cc4Br)OCO5)nc4c(N)ncnc43)nn2)nn1	5.47	4700	5.30

The next compounds have a higher pIC50 [1] than those just listed; values first:

pIC50 [1]	IC50 [2] [nM]	SMILES	pIC50 [3]
6.52	460	C#CCCCn1c(Sc2cc3c(cc2Br)OCO3)nc2c(N)ncnc21	6.48
6.19	6300	Nc1ncnc2c1nc(Sc1cc3c(cc1Br)OCO3)n2CCCc1cn(CCOCCOCCOCCOCCOCCn2cc(CCCn3c(Sc4cc5c(cc4Br)OCO5)nc4c(N)ncnc43)nn2)nn1	5.42
6.29	2900	Nc1ncnc2c1nc(Sc1cc3c(cc1Br)OCO3)n2CCCCc1cn(CCCO)nn1	5.85
6.10	7100	Nc1ncnc2c1nc(Sc1cc3c(cc1Br)OCO3)n2CCCc1cn(CCOCCOCCOCCOCCOCCOCCn2cc(CCCn3c(Sc4cc5c(cc4Br)OCO5)nc4c(N)ncnc43)nn2)nn1	5.25
6.31	3900	Nc1ncnc2c1nc(Sc1cc3c(cc1Br)OCO3)n2CCCc1cn(CCCO)nn1	5.74
